Measurements published in US9458137B2, “Substituted indol-5-ol derivatives and their therapeutical applications” (NantBioScience, Inc., priority 2012, dated 2016).

Tests used:
Test in all cases: Kinase panel activity
Type in all cases: biochemical
Conditions in all cases: 0.1 μM, ATP Km
WNK2(h) = WNK2(h) (Homo sapiens, UniProt Q9Y3S1)
Description: (§1) The effect of NTW-3475 on kinase activity was tested for a wide range of kinases and is shown in Table 2: Summary Sheet, Activity % ATP Concentration: Km

Lck(h) = Lck(h) (Homo sapiens, UniProt P06239)
Description: as §1

PRAK(h) = PRAK(h) (Homo sapiens, UniProt Q8IW41)
Description: as §1

SAPK2a(h) = target: T1, SAPK2a(h) (Homo sapiens, UniProt Q16539)
T1 construct: purchased Millipore (KinaseProfiler service)
Description: as §1

PKCβ1(h) = PKCβ1(h) (Homo sapiens, UniProt P05771)
Description: as §1

PRK2(h) = target: T2, PRK2(h) (Homo sapiens, UniProt Q16513)
T2 construct: purchased Millipore (KinaseProfiler service)
Description: as §1

CDK6/cyclinD3(h) = CDK6/cyclinD3(h) (Homo sapiens, UniProt Q00534)
Description: as §1

TAO1(h) = target: T3, TAO1(h) (Homo sapiens, UniProt Q7L7X3)
T3 construct: purchased Millipore (KinaseProfiler service)
Description: as §1

FAK(h) = target: T4, FAK(h) (Homo sapiens, UniProt Q05397)
T4 construct: purchased Millipore (KinaseProfiler service)
Description: as §1

Rsk1(r) = target: T5, Rsk1(r) (Rattus norvegicus, UniProt Q63531)
T5 construct: purchased Millipore (KinaseProfiler service)
Description: as §1

Fms(h) = Fms(h) (Homo sapiens, UniProt P07333)
Description: as §1

ACK1(h) = ACK1(h) (Homo sapiens, UniProt Q07912)
Description: as §1

Ret(V804L)(h) = target: T6, Ret(V804L)(h) (Homo sapiens, UniProt P07949, V804L)
T6 construct: purchased Millipore (KinaseProfiler service)
Description: as §1

PrKX(h) = target: T7, PrKX(h) (Homo sapiens, UniProt P51817)
T7 construct: purchased Millipore (KinaseProfiler service)
Description: as §1

EphB1(h) = target: T8, EphB1(h) (Homo sapiens, UniProt P54762)
T8 construct: purchased Millipore (KinaseProfiler service)
Description: as §1

Syk(h) = target: T9, Syk(h) (Homo sapiens, UniProt P43405)
T9 construct: purchased Millipore (KinaseProfiler service)
Description: as §1

Met(D1246H)(h) = target: T10, Met(D1246H)(h) (Homo sapiens, UniProt P08581, D1228H)
T10 construct: purchased Millipore (KinaseProfiler service)
Description: as §1

cKit(D816V)(h) = cKit(D816V)(h) (Homo sapiens, UniProt P10721, D816V)
Description: as §1

Arg(m) = Arg(m) (Mus musculus, UniProt Q4JIM5)
Description: as §1

ULK3(h) = ULK3(h) (Homo sapiens, UniProt Q6PHR2)
Description: as §1

Aurora-B(h) = Aurora-B(h) (Homo sapiens, UniProt Q96GD4)
Description: as §1

Fms(Y969C)(h) = Fms(Y969C)(h) (Homo sapiens, UniProt P07333, Y969C)
Description: as §1

CHK2(h) = CHK2(h) (Homo sapiens, UniProt O96017)
Description: as §1

Met(Y1248D)(h) = target: T11, Met(Y1248D)(h) (Homo sapiens, UniProt P08581, Y1230D)
T11 construct: purchased Millipore (KinaseProfiler service)
Description: as §1

Arg(h) = Arg(h) (Homo sapiens, UniProt P42684)
Description: as §1

Ab1(m) = Ab1(m) (Mus musculus, UniProt P00520)
Description: as §1

PAK5(h) = PAK5(h) (Homo sapiens, UniProt Q9P286)
Description: as §1

EphA4(h) = target: T12, EphA4(h) (Homo sapiens, UniProt P54764)
T12 construct: purchased Millipore (KinaseProfiler service)
Description: as §1

IR(h), activated = IR(h), activated (Homo sapiens, UniProt P06213)
Description: as §1

cSRC(h) = cSRC(h) (Homo sapiens, UniProt P12931)
Description: as §1

JAK2(h) = JAK2(h) (Homo sapiens, UniProt O60674)
Description: as §1

Met(Y1248H)(h) = target: T13, Met(Y1248H)(h) (Homo sapiens, UniProt P08581, Y1230H)
T13 construct: purchased Millipore (KinaseProfiler service)
Description: as §1

Snk(h) = target: T14, Snk(h) (Homo sapiens, UniProt Q9NYY3)
T14 construct: purchased Millipore (KinaseProfiler service)
Description: as §1

Rse(h) = target: T15, Rse(h) (Homo sapiens, UniProt Q06418)
T15 construct: purchased Millipore (KinaseProfiler service)
Description: as §1

CHK2(R145W)(h) = CHK2(R145W)(h) (Homo sapiens, UniProt O96017, R145W)
Description: as §1

JNK1α1(h) = JNK1α1(h) (Homo sapiens, UniProt P45983)
Description: as §1

MAPKAP-K3(h) = target: T16, MAPKAP-K3(h) (Homo sapiens, UniProt Q16644)
T16 construct: purchased Millipore (KinaseProfiler service)
Description: as §1

NEK6(h) = NEK6(h) (Homo sapiens, UniProt Q9HC98)
Description: as §1

DCAMKL2(h) = DCAMKL2(h) (Homo sapiens, UniProt Q8N568)
Description: as §1

Chain of DCAMKL2(h) (Q8N568 whole entry): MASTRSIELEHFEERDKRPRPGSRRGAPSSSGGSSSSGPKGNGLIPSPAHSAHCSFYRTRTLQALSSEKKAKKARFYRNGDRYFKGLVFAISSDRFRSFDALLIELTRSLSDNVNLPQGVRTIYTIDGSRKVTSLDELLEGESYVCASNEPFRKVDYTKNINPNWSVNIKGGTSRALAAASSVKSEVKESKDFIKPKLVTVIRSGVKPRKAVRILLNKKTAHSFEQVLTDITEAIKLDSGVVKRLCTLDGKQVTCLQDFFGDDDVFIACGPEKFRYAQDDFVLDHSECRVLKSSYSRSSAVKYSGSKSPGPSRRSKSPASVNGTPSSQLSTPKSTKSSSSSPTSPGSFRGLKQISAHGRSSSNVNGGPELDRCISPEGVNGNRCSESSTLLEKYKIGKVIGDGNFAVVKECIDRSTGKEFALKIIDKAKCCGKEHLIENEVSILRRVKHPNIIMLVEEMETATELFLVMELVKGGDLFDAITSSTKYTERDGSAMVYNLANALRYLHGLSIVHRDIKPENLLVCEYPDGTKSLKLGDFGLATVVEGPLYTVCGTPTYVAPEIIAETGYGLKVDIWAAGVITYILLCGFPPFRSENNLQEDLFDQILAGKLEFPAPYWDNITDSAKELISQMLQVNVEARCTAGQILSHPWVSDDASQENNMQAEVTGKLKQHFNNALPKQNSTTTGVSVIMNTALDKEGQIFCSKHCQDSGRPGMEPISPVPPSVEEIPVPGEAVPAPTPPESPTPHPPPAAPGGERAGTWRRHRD
Chain of IR(h), activated (P06213 28-1382): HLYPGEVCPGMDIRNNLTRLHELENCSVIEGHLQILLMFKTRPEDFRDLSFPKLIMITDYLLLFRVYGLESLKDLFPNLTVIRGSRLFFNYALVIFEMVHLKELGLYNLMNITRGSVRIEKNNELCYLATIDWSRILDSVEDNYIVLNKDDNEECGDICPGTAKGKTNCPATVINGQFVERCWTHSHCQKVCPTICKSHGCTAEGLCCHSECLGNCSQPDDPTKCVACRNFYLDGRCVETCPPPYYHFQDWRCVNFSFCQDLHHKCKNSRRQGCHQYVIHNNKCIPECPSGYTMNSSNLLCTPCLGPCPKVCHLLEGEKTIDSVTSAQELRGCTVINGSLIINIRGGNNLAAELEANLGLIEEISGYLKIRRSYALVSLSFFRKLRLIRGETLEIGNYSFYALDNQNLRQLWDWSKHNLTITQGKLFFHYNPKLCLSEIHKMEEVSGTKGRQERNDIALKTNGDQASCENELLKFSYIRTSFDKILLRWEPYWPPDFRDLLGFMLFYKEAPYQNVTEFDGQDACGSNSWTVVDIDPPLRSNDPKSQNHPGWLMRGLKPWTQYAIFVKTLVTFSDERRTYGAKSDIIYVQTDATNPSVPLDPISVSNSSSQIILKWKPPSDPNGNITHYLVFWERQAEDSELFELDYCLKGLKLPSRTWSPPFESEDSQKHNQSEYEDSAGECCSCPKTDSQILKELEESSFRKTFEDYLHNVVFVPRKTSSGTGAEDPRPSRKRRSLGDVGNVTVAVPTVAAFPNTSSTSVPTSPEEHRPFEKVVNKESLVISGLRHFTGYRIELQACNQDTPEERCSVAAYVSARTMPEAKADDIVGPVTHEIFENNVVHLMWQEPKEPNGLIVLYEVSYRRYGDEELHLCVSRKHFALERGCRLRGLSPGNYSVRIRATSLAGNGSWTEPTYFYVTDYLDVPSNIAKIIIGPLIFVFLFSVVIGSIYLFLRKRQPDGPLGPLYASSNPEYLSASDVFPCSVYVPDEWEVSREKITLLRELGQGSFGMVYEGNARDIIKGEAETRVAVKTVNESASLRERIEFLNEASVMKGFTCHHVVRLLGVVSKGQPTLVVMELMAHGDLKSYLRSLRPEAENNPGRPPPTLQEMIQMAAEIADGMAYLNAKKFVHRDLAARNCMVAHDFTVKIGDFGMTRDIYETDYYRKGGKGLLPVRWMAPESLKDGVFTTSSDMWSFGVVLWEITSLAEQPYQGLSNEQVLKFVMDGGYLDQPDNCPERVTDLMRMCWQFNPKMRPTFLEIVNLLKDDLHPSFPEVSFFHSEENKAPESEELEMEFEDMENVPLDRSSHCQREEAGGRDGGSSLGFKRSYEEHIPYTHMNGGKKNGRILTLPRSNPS
T1 sequence (Q16539 whole entry): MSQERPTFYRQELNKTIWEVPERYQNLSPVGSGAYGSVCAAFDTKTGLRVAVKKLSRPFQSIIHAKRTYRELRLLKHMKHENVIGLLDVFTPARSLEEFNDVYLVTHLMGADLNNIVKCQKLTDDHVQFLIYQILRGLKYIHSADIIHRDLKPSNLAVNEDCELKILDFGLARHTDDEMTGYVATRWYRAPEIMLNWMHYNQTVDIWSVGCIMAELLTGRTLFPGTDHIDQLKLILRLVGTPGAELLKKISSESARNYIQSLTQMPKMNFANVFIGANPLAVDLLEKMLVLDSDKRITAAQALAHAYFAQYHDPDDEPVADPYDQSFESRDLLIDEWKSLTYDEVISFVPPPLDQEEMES
T4 sequence (Q05397 whole entry): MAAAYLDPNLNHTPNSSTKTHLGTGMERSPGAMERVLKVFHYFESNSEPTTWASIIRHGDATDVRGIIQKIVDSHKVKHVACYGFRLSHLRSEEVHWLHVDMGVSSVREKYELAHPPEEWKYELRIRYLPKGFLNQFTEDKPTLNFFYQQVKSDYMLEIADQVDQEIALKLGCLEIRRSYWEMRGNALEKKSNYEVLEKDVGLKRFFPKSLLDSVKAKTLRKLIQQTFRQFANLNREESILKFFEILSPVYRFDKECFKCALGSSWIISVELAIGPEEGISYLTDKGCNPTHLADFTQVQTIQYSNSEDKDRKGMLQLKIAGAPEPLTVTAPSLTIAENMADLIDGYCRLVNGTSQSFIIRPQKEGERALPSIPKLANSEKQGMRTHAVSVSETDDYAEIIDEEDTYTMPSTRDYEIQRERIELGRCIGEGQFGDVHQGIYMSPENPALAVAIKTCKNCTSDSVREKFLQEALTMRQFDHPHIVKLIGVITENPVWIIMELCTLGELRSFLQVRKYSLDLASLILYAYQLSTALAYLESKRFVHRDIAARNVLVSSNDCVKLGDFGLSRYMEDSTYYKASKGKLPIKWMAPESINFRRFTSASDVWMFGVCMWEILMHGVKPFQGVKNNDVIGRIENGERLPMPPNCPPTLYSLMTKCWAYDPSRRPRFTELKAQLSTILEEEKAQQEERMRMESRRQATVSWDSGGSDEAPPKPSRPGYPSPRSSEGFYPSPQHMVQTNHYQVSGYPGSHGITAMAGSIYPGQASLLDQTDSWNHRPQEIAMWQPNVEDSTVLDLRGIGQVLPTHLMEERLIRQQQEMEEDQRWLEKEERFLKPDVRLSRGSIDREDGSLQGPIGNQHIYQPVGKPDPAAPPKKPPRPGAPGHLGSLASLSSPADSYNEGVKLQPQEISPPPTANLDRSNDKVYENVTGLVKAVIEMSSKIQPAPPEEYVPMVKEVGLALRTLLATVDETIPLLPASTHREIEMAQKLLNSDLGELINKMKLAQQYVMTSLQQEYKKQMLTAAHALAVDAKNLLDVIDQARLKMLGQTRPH
Chain of Lck(h) (P06239 whole entry): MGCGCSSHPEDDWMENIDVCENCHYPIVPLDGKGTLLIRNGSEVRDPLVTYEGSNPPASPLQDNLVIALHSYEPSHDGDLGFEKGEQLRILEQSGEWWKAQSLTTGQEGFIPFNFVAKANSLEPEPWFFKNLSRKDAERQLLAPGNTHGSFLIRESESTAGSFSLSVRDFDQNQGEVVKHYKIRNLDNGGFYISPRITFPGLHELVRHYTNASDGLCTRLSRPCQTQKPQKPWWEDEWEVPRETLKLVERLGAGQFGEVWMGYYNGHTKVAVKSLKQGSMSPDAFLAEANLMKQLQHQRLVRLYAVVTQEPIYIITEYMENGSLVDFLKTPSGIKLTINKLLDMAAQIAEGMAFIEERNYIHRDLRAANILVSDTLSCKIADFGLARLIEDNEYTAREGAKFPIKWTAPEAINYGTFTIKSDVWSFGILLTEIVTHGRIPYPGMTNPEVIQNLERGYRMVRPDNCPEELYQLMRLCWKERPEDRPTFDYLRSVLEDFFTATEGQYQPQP
Chain of NEK6(h) (Q9HC98 whole entry): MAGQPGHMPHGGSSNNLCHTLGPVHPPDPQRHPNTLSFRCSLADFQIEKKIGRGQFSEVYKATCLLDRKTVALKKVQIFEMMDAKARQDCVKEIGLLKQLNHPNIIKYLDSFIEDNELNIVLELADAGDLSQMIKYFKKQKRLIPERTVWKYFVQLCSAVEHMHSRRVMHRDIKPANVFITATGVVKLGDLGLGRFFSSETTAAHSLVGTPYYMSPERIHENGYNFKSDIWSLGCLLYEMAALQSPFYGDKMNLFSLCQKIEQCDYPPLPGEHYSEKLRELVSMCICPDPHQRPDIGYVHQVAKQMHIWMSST
Chain of cSRC(h) (P12931 whole entry): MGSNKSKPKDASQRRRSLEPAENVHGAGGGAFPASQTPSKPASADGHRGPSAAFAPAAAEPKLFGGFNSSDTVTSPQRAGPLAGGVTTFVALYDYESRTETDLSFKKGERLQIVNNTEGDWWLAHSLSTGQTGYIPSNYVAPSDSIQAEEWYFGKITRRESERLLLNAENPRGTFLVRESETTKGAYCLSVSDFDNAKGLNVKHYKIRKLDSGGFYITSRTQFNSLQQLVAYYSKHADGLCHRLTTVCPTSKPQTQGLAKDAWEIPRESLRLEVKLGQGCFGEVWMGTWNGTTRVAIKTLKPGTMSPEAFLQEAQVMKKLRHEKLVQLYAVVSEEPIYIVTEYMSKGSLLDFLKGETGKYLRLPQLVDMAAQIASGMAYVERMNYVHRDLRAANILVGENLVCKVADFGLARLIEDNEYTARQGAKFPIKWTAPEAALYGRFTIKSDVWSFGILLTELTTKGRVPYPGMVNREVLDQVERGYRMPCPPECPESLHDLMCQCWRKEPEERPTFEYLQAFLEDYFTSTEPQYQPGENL

Cc1cc2c(F)c(Oc3nc(Nc4cc(C5CC5)[nH]n4)cc(N4CCN(C)CC4)n3)cc(F)c2[nH]1 [NTW-3475]
Activity % (WNK2(h)): 99% | Activity % (Lck(h)): −8% | Activity % (PRAK(h)): 100% | Activity % (SAPK2a(h)): 79% | Activity % (PKCβ1(h)): 92% | Activity % (PRK2(h)): 30% | Activity % (CDK6/cyclinD3(h)): 65% | Activity % (TAO1(h)): 65% | Activity % (FAK(h)): 78% | Activity % (Rsk1(r)): 69% | Activity % (Fms(h)): 8% | Activity % (ACK1(h)): 4% | Activity % (Ret(V804L)(h)): −4% | Activity % (PrKX(h)): 68% | Activity % (EphB1(h)): −1% | Activity % (Syk(h)): 84% | Activity % (Met(D1246H)(h)): 18% | Activity % (cKit(D816V)(h)): 63% | Activity % (Arg(m)): −2% | Activity % (ULK3(h)): 11% | Activity % (Aurora-B(h)): 1% | Activity % (Fms(Y969C)(h)): 4% | Activity % (CHK2(h)): 95% | Activity % (Met(Y1248D)(h)): 21% | Activity % (Arg(h)): −3% | Activity % (Ab1(m)): −2% | Activity % (PAK5(h)): 29% | Activity % (EphA4(h)): 23% | Activity % (IR(h), activated): 13% | Activity % (cSRC(h)): 2% | Activity % (JAK2(h)): 8% | Activity % (Met(Y1248H)(h)): 16% | Activity % (Snk(h)): 97% | Activity % (Rse(h)): 55% | Activity % (CHK2(R145W)(h)): 91% | Activity % (JNK1α1(h)): 92% | Activity % (MAPKAP-K3(h)): 103% | Activity % (NEK6(h)): 90% | Activity % (DCAMKL2(h)): 87%
